Assay results taken from PubChem BioAssay (NCI).
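Test compounds were applied to cells in 96-well plates for 48 hours at 5 doses. At the TGI there is no net growth.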

Columns and labels:
Assay in all cases: inhibition of tumour cell growth, NCI panel, 48 h
MDA-MB-231 breast = tested on: MDA-MB-231 breast
OVCAR-5 ovarian = tested on: OVCAR-5 ovarian
LOX IMVI melanoma = tested on: LOX IMVI melanoma
RPMI-8226 leukemia = tested on: RPMI-8226 leukemia
SF-539 CNS = tested on: SF-539 CNS
MCF7 breast = tested on: MCF7 breast
MDA-N = tested on: MDA-N
K-562 leukemia = tested on: K-562 leukemia
SN12C renal = tested on: SN12C renal
NCI/ADR-RES ovarian = tested on: NCI/ADR-RES ovarian
OVCAR-4 ovarian = tested on: OVCAR-4 ovarian
HCT-15 colon = tested on: HCT-15 colon
A498 renal = tested on: A498 renal
ACHN renal = tested on: ACHN renal
NCI-H23 lung = tested on: NCI-H23 lung
786-0 renal = tested on: 786-0 renal
PC-3 prostate = tested on: PC-3 prostate
KM12 colon = tested on: KM12 colon
SK-OV-3 ovarian = tested on: SK-OV-3 ovarian
HOP-62 NSCLC = tested on: HOP-62 NSCLC
CAKI-1 renal = tested on: CAKI-1 renal
UACC-62 melanoma = tested on: UACC-62 melanoma
RXF 393 renal = tested on: RXF 393 renal
A549 NSCLC = tested on: A549 NSCLC
HCT-116 colon = tested on: HCT-116 colon
IGROV1 ovarian = tested on: IGROV1 ovarian
SK-MEL-28 melanoma = tested on: SK-MEL-28 melanoma
SF-295 CNS = tested on: SF-295 CNS
SNB-75 CNS = tested on: SNB-75 CNS
OVCAR-3 ovarian = tested on: OVCAR-3 ovarian
BT-549 breast = tested on: BT-549 breast
SK-MEL-2 melanoma = tested on: SK-MEL-2 melanoma
NCI-H460 lung = tested on: NCI-H460 lung
MALME-3M melanoma = tested on: MALME-3M melanoma
MDA-MB-435 = tested on: MDA-MB-435
EKVX NSCLC = tested on: EKVX NSCLC
SF-268 CNS = tested on: SF-268 CNS
SK-MEL-5 melanoma = tested on: SK-MEL-5 melanoma
NCI-H522 lung = tested on: NCI-H522 lung
DU-145 prostate = tested on: DU-145 prostate
UACC-257 melanoma = tested on: UACC-257 melanoma
SNB-19 CNS = tested on: SNB-19 CNS
HS 578T breast = tested on: HS 578T breast
U251 CNS = tested on: U251 CNS
COLO 205 colon = tested on: COLO 205 colon
HOP-92 NSCLC = tested on: HOP-92 NSCLC
M14 melanoma = tested on: M14 melanoma
NCI-H226 lung = tested on: NCI-H226 lung
SW-620 colon = tested on: SW-620 colon
OVCAR-8 ovarian = tested on: OVCAR-8 ovarian
HT29 colon = tested on: HT29 colon
T-47D breast = tested on: T-47D breast
UO-31 renal = tested on: UO-31 renal
TK-10 renal = tested on: TK-10 renal
SR leukemia = tested on: SR leukemia
MOLT-4 leukemia = tested on: MOLT-4 leukemia
HCC-2998 colon = tested on: HCC-2998 colon
CCRF-CEM leukemia = tested on: CCRF-CEM leukemia
HL-60(TB) leukemia = tested on: HL-60(TB) leukemia

Measured: TGI

CC1OC(O)C(O)C(O)C1O (stereo unspecified)
not listed: SR leukemia | MOLT-4 leukemia | HCC-2998 colon | CCRF-CEM leukemia | HL-60(TB) leukemia
> 100 µM: all other assays above

O=C(O)c1ccccc1/C=N\NC1=NCCN1
not listed: RXF 393 renal | SK-MEL-28 melanoma
> 100 µM: all other assays above
